Experiments:
Type in all cases: cell-based
[1] = target: proteins of U3A human fibrosarcoma cells (4462 proteins detected) (Homo sapiens, UniProt Q8NFH4); conditions: protein NUP37, U3A cells
[2] = target: proteins of U3A human fibrosarcoma cells (4462 proteins detected) (Homo sapiens, UniProt Q9UN37); conditions: protein VPS4A; U3A cells
[3] = target: proteins of U3A human fibrosarcoma cells (4462 proteins detected) (Homo sapiens, UniProt P40227); conditions: protein CCT6A; U3A cells
[4] = target: proteins of U3A human fibrosarcoma cells (4462 proteins detected) (Homo sapiens, UniProt P62906); conditions: protein RPL10A; U3A cells
[5] = target: proteins of U3A human fibrosarcoma cells (4462 proteins detected) (Homo sapiens, UniProt Q9Y6G5); conditions: protein COMMD10; U3A cells
[6] = target: proteins of U3A human fibrosarcoma cells (4462 proteins detected) (Homo sapiens, UniProt O94829); conditions: protein IPO13; U3A cells
Chain of proteins of U3A human fibrosarcoma cells (4462 proteins detected) (Homo sapiens, UniProt O94829) (O94829 whole entry): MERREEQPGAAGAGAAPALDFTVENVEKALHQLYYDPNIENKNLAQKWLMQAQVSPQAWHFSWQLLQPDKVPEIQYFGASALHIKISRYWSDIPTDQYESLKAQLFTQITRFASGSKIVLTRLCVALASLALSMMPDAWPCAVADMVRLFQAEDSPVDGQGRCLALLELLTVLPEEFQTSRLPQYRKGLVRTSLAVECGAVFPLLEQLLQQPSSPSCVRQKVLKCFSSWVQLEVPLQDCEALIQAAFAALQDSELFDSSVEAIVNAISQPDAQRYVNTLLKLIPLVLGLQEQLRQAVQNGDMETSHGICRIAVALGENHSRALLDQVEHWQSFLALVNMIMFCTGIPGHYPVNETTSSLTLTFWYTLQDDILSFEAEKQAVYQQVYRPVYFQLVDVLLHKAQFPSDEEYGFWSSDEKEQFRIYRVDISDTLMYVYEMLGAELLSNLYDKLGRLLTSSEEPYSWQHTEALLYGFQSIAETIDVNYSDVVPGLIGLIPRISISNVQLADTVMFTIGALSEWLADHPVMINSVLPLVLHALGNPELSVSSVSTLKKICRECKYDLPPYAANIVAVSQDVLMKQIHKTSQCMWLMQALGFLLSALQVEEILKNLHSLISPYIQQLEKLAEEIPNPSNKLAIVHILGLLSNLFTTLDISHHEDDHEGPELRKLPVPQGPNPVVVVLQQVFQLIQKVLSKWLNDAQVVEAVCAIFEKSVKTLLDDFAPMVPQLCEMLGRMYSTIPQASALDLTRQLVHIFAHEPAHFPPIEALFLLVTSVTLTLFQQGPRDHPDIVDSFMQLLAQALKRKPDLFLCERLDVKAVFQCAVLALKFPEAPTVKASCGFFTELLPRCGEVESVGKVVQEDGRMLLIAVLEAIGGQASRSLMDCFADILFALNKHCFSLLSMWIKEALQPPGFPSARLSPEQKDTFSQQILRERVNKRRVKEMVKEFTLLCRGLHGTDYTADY

[7] = target: proteins of U3A human fibrosarcoma cells (4462 proteins detected) (Homo sapiens, UniProt P15927); conditions: protein RPA2; U3A cells
Chain of proteins of U3A human fibrosarcoma cells (4462 proteins detected) (Homo sapiens, UniProt P15927) (P15927 whole entry): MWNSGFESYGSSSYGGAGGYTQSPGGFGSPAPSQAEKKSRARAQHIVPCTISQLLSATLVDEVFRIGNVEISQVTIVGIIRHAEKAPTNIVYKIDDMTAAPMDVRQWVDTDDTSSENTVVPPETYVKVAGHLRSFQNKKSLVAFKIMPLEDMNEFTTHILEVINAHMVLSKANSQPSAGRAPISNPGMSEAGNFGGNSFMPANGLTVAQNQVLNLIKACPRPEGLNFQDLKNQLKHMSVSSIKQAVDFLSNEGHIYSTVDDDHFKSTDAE

[8] = target: proteins of U3A human fibrosarcoma cells (4462 proteins detected) (Homo sapiens, UniProt Q7L2H7); conditions: protein EIF3M; U3A cells
Chain of proteins of U3A human fibrosarcoma cells (4462 proteins detected) (Homo sapiens, UniProt Q7L2H7) (Q7L2H7 whole entry): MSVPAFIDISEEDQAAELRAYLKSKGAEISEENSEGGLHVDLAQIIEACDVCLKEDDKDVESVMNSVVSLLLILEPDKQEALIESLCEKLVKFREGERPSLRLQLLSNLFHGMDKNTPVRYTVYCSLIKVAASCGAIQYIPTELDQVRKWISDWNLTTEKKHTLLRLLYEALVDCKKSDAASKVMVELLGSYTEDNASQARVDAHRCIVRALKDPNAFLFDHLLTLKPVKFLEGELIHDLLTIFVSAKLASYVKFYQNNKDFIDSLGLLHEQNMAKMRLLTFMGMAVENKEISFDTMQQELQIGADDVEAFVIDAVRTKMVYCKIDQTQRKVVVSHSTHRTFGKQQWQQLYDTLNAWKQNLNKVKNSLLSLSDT

[9] = target: proteins of U3A human fibrosarcoma cells (4462 proteins detected) (Homo sapiens, UniProt Q15041); conditions: protein ARL6IP1; U3A cells
Chain of proteins of U3A human fibrosarcoma cells (4462 proteins detected) (Homo sapiens, UniProt Q15041) (Q15041 whole entry): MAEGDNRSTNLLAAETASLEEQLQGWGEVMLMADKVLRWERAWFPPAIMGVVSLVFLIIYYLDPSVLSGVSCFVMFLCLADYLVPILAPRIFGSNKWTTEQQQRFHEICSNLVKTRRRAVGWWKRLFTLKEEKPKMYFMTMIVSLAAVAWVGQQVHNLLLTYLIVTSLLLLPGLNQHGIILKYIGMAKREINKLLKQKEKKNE

[10] = target: proteins of U3A human fibrosarcoma cells (4462 proteins detected) (Homo sapiens, UniProt Q6GYQ0); conditions: protein RALGAPA1; U3A, 10 μM, 2 h
[11] = target: proteins of U3A human fibrosarcoma cells (4462 proteins detected) (Homo sapiens, UniProt Q16626); conditions: protein MEA1, U3A cells
[12] = target: proteins of U3A human fibrosarcoma cells (4462 proteins detected) (Homo sapiens, UniProt P13861); conditions: protein PRKAR2A; soluble abundance after heat, U3A cells
[13] = target: proteins of U3A human fibrosarcoma cells (4462 proteins detected) (Homo sapiens, UniProt P36507); conditions: protein MAP2K2; U3A cells
Chain of proteins of U3A human fibrosarcoma cells (4462 proteins detected) (Homo sapiens, UniProt P36507) (P36507 whole entry): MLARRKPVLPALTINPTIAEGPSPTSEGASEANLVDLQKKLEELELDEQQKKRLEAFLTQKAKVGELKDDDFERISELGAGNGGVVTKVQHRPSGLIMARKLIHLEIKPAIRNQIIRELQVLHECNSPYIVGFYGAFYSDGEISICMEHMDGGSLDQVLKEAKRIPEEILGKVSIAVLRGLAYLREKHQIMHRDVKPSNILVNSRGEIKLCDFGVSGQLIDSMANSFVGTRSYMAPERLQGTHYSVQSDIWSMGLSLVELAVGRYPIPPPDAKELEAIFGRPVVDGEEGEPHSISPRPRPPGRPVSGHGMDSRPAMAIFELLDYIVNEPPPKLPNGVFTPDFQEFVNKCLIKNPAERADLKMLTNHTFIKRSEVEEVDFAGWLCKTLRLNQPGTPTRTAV

[14] = target: proteins of U3A human fibrosarcoma cells (4462 proteins detected) (Homo sapiens, UniProt Q92922); conditions: protein SMARCC1; soluble abundance after heat, U3A cells
Chain of proteins of U3A human fibrosarcoma cells (4462 proteins detected) (Homo sapiens, UniProt Q92922) (Q92922 whole entry): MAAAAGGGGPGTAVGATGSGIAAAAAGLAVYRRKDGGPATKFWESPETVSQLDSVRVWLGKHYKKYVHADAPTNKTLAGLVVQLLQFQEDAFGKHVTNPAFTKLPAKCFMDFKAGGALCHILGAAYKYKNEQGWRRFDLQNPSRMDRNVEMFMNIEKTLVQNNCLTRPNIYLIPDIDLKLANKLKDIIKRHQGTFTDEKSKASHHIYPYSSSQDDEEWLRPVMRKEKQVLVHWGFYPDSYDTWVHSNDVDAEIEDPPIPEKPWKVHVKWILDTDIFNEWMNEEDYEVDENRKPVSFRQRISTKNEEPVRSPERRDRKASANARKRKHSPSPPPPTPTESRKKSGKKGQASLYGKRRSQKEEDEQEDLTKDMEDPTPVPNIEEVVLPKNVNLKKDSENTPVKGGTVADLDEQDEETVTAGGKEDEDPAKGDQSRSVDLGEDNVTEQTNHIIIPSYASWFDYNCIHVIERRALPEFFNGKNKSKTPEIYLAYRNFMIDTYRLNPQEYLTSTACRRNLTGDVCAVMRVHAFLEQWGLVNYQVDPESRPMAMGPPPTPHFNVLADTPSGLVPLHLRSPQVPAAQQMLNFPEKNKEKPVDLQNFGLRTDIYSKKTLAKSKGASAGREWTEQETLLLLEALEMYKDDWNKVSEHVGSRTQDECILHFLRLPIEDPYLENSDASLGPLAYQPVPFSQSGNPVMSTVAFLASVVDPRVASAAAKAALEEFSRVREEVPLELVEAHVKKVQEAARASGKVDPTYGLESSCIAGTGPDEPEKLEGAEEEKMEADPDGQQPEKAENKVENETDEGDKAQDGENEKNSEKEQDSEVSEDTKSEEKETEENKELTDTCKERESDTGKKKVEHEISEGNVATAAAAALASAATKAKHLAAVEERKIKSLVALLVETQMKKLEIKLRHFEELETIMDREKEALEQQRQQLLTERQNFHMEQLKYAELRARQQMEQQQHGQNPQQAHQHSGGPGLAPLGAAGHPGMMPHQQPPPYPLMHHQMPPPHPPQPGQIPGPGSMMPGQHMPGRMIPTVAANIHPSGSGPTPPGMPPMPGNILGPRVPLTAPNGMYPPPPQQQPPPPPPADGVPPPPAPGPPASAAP

[15] = target: proteins of U3A human fibrosarcoma cells (4462 proteins detected) (Homo sapiens, UniProt Q8WW01); conditions: protein TSEN15; U3A, 10 μM, 2 h
[16] = target: proteins of U3A human fibrosarcoma cells (4462 proteins detected) (Homo sapiens, UniProt Q9H3N1); conditions: protein TMX1; U3A cells
Chain of proteins of U3A human fibrosarcoma cells (4462 proteins detected) (Homo sapiens, UniProt Q9H3N1) (Q9H3N1 27-280): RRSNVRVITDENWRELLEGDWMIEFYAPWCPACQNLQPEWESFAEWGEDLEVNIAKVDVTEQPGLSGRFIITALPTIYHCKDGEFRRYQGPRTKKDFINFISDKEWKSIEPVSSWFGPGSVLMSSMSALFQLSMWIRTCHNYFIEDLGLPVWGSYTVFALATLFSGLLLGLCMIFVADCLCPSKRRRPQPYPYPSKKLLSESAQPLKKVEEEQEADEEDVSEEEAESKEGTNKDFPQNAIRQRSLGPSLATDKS

[17] = target: proteins of U3A human fibrosarcoma cells (4462 proteins detected) (Homo sapiens, UniProt O75351); conditions: protein VPS4B; soluble abundance after heat, U3A cells
Chain of proteins of U3A human fibrosarcoma cells (4462 proteins detected) (Homo sapiens, UniProt O75351) (O75351 whole entry): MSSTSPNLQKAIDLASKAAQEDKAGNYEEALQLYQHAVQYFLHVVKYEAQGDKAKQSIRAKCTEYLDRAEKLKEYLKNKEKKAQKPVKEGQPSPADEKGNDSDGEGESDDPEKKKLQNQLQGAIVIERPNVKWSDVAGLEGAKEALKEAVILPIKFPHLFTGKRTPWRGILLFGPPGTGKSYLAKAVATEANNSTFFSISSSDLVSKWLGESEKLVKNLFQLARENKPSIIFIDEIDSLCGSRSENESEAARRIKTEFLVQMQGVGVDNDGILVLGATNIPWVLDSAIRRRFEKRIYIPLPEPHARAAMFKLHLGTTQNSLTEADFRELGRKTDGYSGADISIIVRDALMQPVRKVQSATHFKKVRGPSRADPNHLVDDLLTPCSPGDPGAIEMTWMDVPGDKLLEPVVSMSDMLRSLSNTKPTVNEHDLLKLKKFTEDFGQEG

[18] = target: proteins of U3A human fibrosarcoma cells (4462 proteins detected) (Homo sapiens, UniProt Q9H944); conditions: protein MED20; U3A cells
[19] = target: proteins of U3A human fibrosarcoma cells (4462 proteins detected) (Homo sapiens, UniProt P15153); conditions: protein RAC2; U3A, 10 μM, 2 h
[20] = target: proteins of U3A human fibrosarcoma cells (4462 proteins detected) (Homo sapiens, UniProt Q86TS9); conditions: protein MRPL52; soluble abundance after heat, U3A cells
[21] = target: proteins of U3A human fibrosarcoma cells (4462 proteins detected) (Homo sapiens, UniProt P30086); conditions: protein PEBP1, U3A cells
Chain of proteins of U3A human fibrosarcoma cells (4462 proteins detected) (Homo sapiens, UniProt P30086) (P30086 whole entry): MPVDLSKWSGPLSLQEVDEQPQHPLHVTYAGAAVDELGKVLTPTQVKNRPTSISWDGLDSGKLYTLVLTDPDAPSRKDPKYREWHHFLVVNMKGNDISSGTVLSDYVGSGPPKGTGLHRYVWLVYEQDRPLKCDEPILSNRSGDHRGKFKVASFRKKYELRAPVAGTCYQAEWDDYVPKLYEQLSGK

[22] = target: proteins of U3A human fibrosarcoma cells (4462 proteins detected) (Homo sapiens, UniProt P17987); conditions: protein TCP1; U3A cells
[23] = target: proteins of U3A human fibrosarcoma cells (4462 proteins detected) (Homo sapiens, UniProt P49458); conditions: protein SRP9, U3A cells
[24] = target: proteins of U3A human fibrosarcoma cells (4462 proteins detected) (Homo sapiens, UniProt Q14657); conditions: protein LAGE3; soluble abundance after heat, U3A cells
Chain of proteins of U3A human fibrosarcoma cells (4462 proteins detected) (Homo sapiens, UniProt Q14657) (Q14657 whole entry): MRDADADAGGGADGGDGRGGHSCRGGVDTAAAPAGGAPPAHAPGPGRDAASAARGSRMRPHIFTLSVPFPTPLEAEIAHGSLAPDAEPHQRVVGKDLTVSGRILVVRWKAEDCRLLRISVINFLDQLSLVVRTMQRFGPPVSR

[25] = target: proteins of U3A human fibrosarcoma cells (4462 proteins detected) (Homo sapiens, UniProt A0MZ66); conditions: protein KIAA1598; U3A, 10 μM, 2 h
[26] = target: proteins of U3A human fibrosarcoma cells (4462 proteins detected) (Homo sapiens, UniProt P05556); conditions: protein ITGB1; U3A cells
[27] = target: proteins of U3A human fibrosarcoma cells (4462 proteins detected) (Homo sapiens, UniProt P46087); conditions: protein NOP2; U3A cells
[28] = target: proteins of U3A human fibrosarcoma cells (4462 proteins detected) (Homo sapiens, UniProt Q658Y4); conditions: protein FAM91A1; soluble abundance after heat, U3A cells
[29] = target: proteins of U3A human fibrosarcoma cells (4462 proteins detected) (Homo sapiens, UniProt Q9UIC8); conditions: protein LCMT1, U3A cells
[30] = target: proteins of U3A human fibrosarcoma cells (4462 proteins detected) (Homo sapiens, UniProt O60293); conditions: protein ZFC3H1; U3A cells

Chain of proteins of U3A human fibrosarcoma cells (4462 proteins detected) (Homo sapiens, UniProt P40227) (P40227 whole entry): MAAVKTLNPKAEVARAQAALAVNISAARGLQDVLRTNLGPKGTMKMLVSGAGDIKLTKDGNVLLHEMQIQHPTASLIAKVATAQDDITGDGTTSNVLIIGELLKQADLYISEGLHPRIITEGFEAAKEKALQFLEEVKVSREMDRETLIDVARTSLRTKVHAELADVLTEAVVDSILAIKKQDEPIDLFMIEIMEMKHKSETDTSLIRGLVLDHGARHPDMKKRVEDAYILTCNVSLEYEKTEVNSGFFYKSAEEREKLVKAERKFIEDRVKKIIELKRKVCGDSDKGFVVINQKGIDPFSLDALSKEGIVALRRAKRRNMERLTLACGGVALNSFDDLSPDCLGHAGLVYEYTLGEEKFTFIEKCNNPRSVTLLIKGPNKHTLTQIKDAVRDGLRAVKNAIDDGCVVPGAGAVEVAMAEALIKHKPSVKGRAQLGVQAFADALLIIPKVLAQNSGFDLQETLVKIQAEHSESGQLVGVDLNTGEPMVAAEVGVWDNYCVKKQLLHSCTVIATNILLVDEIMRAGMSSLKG

Question: Which results are given for CCc1nc(N)nc(N)c1-c1ccc(Cl)cc1 [pyrimethamine]?
Answer: Log2 (PYR/DMSO) [1]: -0.04; Log2 (PYR/DMSO) [2]: 0.19; Log2 (PYR/DMSO) [3]: 0.20; Log2 (PYR/DMSO) [4]: 0.17; Log2 (PYR/DMSO) [5]: 0.22; Log2 (PYR/DMSO) [6]: 0.19; Log2 (PYR/DMSO) [7]: 0.17; Log2 (PYR/DMSO) [8]: 0.18; Log2 (PYR/DMSO) [9]: 0.17; Log2 (PYR/DMSO), RALGAPA1 [10]: -0.50; Log2 (PYR/DMSO) [11]: -0.04; Log2 (PYR/DMSO) [12]: 0.14; Log2 (PYR/DMSO) [13]: 0.23; Log2 (PYR/DMSO) [14]: 0.15; Log2 (PYR/DMSO), TSEN15 [15]: -0.15; Log2 (PYR/DMSO) [16]: 0.20; Log2 (PYR/DMSO) [17]: 0.14; Log2 (PYR/DMSO) [18]: 0.18; Log2 (PYR/DMSO), RAC2 [19]: -0.15; Log2 (PYR/DMSO) [20]: 0.15; Log2 (PYR/DMSO) [21]: -0.04; Log2 (PYR/DMSO) [22]: 0.21; Log2 (PYR/DMSO) [23]: -0.05; Log2 (PYR/DMSO) [24]: 0.14; Log2 (PYR/DMSO), KIAA1598 [25]: -0.28; Log2 (PYR/DMSO) [26]: 0.16; Log2 (PYR/DMSO) [27]: 0.16; Log2 (PYR/DMSO) [28]: 0.14; Log2 (PYR/DMSO) [29]: -0.04; Log2 (PYR/DMSO) [30]: 0.18
